The test system of series [1] is T. cruzi epimastigotes (CL strain clone 14). Put plainly: Growth inhibition assay on T. cruzi epimastigotes. It counts as cell-based, Trypanosoma cruzi. The settings on record: for Effect on parasite growth at the maximum concentration: 100 μM; for Times more active than T4C: T. cruzi epimastigotes, IC50 relative to T4C (890 μM). On the procedure:
T. cruzi CL strain clone 14 epimastigotes (Brener and […], [1965]) were maintained in the exponential growth phase by subculturing every 48 h in Liver Infusion Tryptose (LIT) medium supplemented with 10% FCS (Vitrocell, Campinas, São Paulo, Brazil) at 28 °C. T. cruzi epimastigotes in the exponential growth phase (5.0-6.0 x 10^7 cells mL^-1) were cultured in fresh LIT medium. The cells were treated with different concentrations of drugs or not treated (negative control). A combination of Rotenone (60 μM) and Antimycin (0.5 μM) was used as a positive control for inhibition as previously described. (Magdaleno et al., [2009]) The cells (2.5 x 10^6 mL^-1) were transferred to 96-well culture plates and incubated at 28 °C. Cell proliferation was quantified by reading the optical density (OD) at 620 nm for 8 days. The OD was converted to cell density values (cells per mL) using a linear regression equation previously obtained under the same conditions. The concentration of compounds that inhibited 50% of parasite proliferation (IC50) was determined during the exponential growth phase (4 days) by fitting the data to a typical sigmoidal dose-response curve using OriginPro8. The compounds were evaluated in quadruplicate in each experiment. The results shown here correspond to three independent experiments. As a cell growth inhibition control, growth curves in which […] were added to the culture medium were run in parallel for all experiments.

The test system of a further series is Vero cells. The series can be described thus: Cytotoxicity assay on Vero cells (MTT). It counts as cell-based, African green monkey. The settings on record: for IC50: Chlorocebus sabaeus, Vero, 48 h, MTT. On the procedure: To evaluate the analogs toxicity, Vero cells previously plated on 96 multi-well plate in DMEM 2% FBS and incubated for 48 h at 37 °C in a humid atmosphere containing 5% CO2, were incubated with […] of DMEM 2% FBS supplemented with each analog for 48 h. The concentration (μM) was different with each analog:
The viability of cells was measured by MTT dye (3-(4,5-Dimethylthiazol-2-yl)-2,5-diphenyltratazolium bromide, Sigma-Aldrich) colorimetric method. Benznidazole and DMSO were used as positive and negative controls, respectively. Data are expressed as means ± SD of the results of three independent assays of each condition.

For a further series, the system named is L-proline transporter. The series can be described thus: L-Proline transport competition assay in T. cruzi epimastigotes. In kind it is cell-based, Trypanosoma cruzi. The settings on record: 3.1 mM analog; for Proline uptake inhibition (in words): 0.31 mM L-proline. On the procedure:
Parasites in exponential growth phase were washed three times by centrifugation and resuspended in phosphate buffered saline (PBS), pH 7.4. Cells were counted in a Neubauer chamber, adjusted with the same buffer to a final density of 200 × 10^6 cells/mL and distributed in aliquots of 100 μL (containing 20 × 10^6 cells each). Transport assays were initiated by the addition to the assay tubes of 100 μL of the desired dilution of L-proline in PBS in the presence of […] of L-[3H] proline. Unless otherwise specified, V0 was measured at 28 °C for 30 s by incorporation of 0.75 and 3 mM L-proline traced with 1 μCi of U-^14C-L-Pro (Perkin Elmer). In all cases, proline transport was stopped by addition of […] of cold 50 mM proline in PBS (pH 7.4), and rapid washing by centrifugation at 10,000x g for 2 min. Background values in each experiment were measured by simultaneous addition of radiolabeled L-proline and stop solution as previously described (Silber et al., [2002]). For the competition assays, the transport experiments were performed as described above using the L-Pro concentration corresponding to the Km (0.31 mM). Those conditions were chosen considering an inhibitory activity by structurally related compounds should be competitive, and so, should be evidenced by a change in the […] at L-Pro concentrations close to the Km. Non-competitive inhibitors, if any, should diminish Vmax, which is measured at 10 x Km L-Pro (3.1 mM) (Silber et al., [2002]). […] The analogs were assayed on T. cruzi epimastigotes incubated with proline at the transporter Km concentration (0.31 mM), and the analogs were assayed at concentration 10-fold higher (3.1 mM). […] The oleyl derivate (3k), with an unsaturated fatty tail, has a similar IC50 on T. cruzi epimastigotes compared to the cetyl analog (3j) showing no inhibition in terms of proline uptake (Table 2).  Figure 4 Proline uptake assay. Pro control = Proline control, Pro comp = L-Proline as competitor. 3i-k and 3n = proline level incubated (*p < 0.05) with selected analogs. Pro control (0.31 mM L-proline, [^3H] proline, PBS). Pro Comp (3.1 mM L-proline, [^3H] proline, PBS). Compounds 3i-k and 3n (0.31 mM L-proline, 3.1 mM analog 3x, [^3H] proline, PBS). Stop solution: 50 mM L-proline added after 30 s.

Series [2] concerns T. cruzi epimastigotes (CL strain clone 14). The settings on record: cited from earlier work.
Where [3] appears, read: Trypanosoma cruzi, 96 h, epimastigotes CL14, IC50 at 4 days, means (SD) from three independent experiments, max. concentration 100 μM, read-out: T. cruzi IC50.
Setting [4] is: epimastigotes CL14, IC50 at 4 days, means (SD) from three independent experiments, max. concentration 100 μM, read-out: T. cruzi IC50.

Values joined by “and” are separate entries in the source; they are usually repeats but may differ in a detail not shown here. Equal entries are not always repeated. “Also recorded” adds a separate entry of the source. Where two headings read alike, the source gives them in different places.

Usually IC50 stands for the midpoint of a concentration-inhibition curve. Broadly, the melting point is the temperature, or range, at which the solid turns liquid.

As for `COC(=O)[C@@H]1CCCN1Cc1cn(Cc2ccccc2)nn1` [Compound 3c, Methyl ((1-Benzyl-1H-1,2,3-Triazol-4-yl)Methyl)-L-Prolinate], in series [1] (setting [3]), the concentration for half-maximal inhibition (IC50) is above 0.1 mM. Moreover, the “Effect on parasite growth at the maximum concentration” value (“Effect on parasite growth” for short) in series [1] (epimastigotes) is “did not affect the parasite growth; also recorded: inactive”.

For the molecule `CCCCCCCCn1cc(CN2CCC[C@H]2C(=O)OC)nn1` [Compound 3h, Methyl ((1-Octyl-1H-1,2,3-Triazol-4-yl)Methyl)-L-Prolinate], the IC50 in series [1] (setting [3]) was above 0.1 mM. Also, the “Effect on parasite growth” value in series [1] (epimastigotes) is “did not affect the parasite growth; also recorded: inactive”.

Turning to `COC(=O)[C@@H]1CCCN1Cc1cn(C/C=C(\C)CC/C=C(\C)CCC=C(C)C)nn1` [Compound 3n, Methyl ((1-((2E,6E)-3,7,11-Trimethyldodeca-2,6,10-Trien-1-yl)-1H-1,2,3-Triazol-4-yl)Methyl)-L-Prolinate], the “Times more active than T4C” value in series [1] is recorded as 18. Besides, the results for the IC50 (in series [1] (setting [3]); in series [1] (setting [4]); in the series with Vero cells) were below 0.05 mM, 0.0483 ± 0.00129 mM and 14 µM, respectively. In addition, the “Selectivity index (IC50 Vero cells / IC50 T. cruzi epimastigotes)” value with Vero cells stood at 0.25. Also, the “Proline uptake inhibition (in words)” value in the series with L-proline transporter is given as “complete inhibition; also recorded: markedly reduction of the internalized proline”.

Regarding `CCOC(=O)Cn1cc(CN2CCC[C@H]2C(=O)OC)nn1` [Compound 3a, Methyl ((1-(2-Ethoxy-2-Oxoethyl)-1H-1,2,3-Triazol-4-yl)Methyl)-L-Prolinate], in series [1] (setting [3]), the IC50 is above 0.1 mM. In series [1] (epimastigotes), the “Effect on parasite growth” value was “did not affect the parasite growth; also recorded: inactive”.

In the case of `COC(=O)[C@@H]1CCCN1Cc1cn(C/C=C(\C)CCCC(C)CCCC(C)CCCC(C)C)nn1` (stereo partly drawn) [Compound 3p, Methyl ((1-((E)-3,7,11,15-Tetramethylhexadec-2-en-1-yl)-1H-1,2,3-Triazol-4-yl)Methyl) -L-Prolinate], the IC50 in series [1] (setting [3]) worked out at 0.0483 mM; in series [1] (setting [4]), 0.0697 ± 0.00217 mM.

As to `CCOC(=O)CCCCn1cc(CN2CCC[C@H]2C(=O)OC)nn1` [Compound 3b, Methyl ((1-(5-Ethoxy-5-Oxopentyl)-1H-1,2,3-Triazol-4-yl)Methyl)-L-Prolinate], the IC50 in series [1] (setting [3]) is above 0.1 mM. For the same molecule, the “Effect on parasite growth” value in series [1] (epimastigotes) is “did not affect the parasite growth; also recorded: inactive”.

For the molecule `CCCCCCCCCCn1cc(CN2CCC[C@H]2C(=O)OC)nn1` [Compound 3i, Methyl ((1-Decyl-1H-1,2,3-Triazol-4-yl)Methyl)-L-Prolinate], in series [1], the “Times more active than T4C” value was 23. The IC50 is below 0.04 mM in series [1] (setting [3]); < 0.05 mM and 0.038 mM and 0.039 mM in series [1] (setting [4]); 43 µM in the series with Vero cells. Further, the “Selectivity index (IC50 Vero cells / IC50 T. cruzi epimastigotes)” value in the series with Vero cells came out at 1.13. In addition, the “Proline uptake inhibition (in words)” value in the series on L-proline transporter was “markedly reduction of the internalized proline”.

In the case of `COC(=O)[C@@H]1CCCN1Cc1cn(CCCc2ccccc2)nn1` [Compound 3e, Methyl ((1-(3-Phenylpropyl)-1H-1,2,3-Triazol-4-yl)Methyl)-L-Prolinate], the IC50 in series [1] (setting [3]) is above 0.1 mM. In addition, the “Effect on parasite growth” value in series [1] (epimastigotes) is “did not affect the parasite growth; also recorded: inactive”.

For `COC(=O)[C@@H]1CCCN1Cc1cn(CC=C(C)CCC=C(C)C)nn1` [Compound 3m, Methyl ((1-(3,7-Dimethylocta-2,6-Dien-1-yl)-1H-1,2,3-Triazol-4-yl)Methyl)-L-Prolinate], the IC50 in series [1] (setting [3]) is above 0.1 mM. Moreover, in series [1] (epimastigotes), the “Effect on parasite growth” value was “did not affect the parasite growth; also recorded: inactive”.

Consider `O=C(Cn1ccnc1[N+](=O)[O-])NCc1ccccc1` [Benznidazole], for which the IC50 in series [2] (epimastigotes, read-out: T. cruzi IC50) is 7 µM.

With `CCCCCCCCCCCCCCCCCCCCn1cc(CN2CCC[C@H]2C(=O)OC)nn1` [Compound 3l, Methyl ((1-Icosyl-1H-1,2,3-Triazol-4-yl)Methyl)-L-Prolinate], the melting point is 72.7 to 73.7 °C. Besides, the IC50 in series [1] (setting [3]) came to 0.1 mM.

As for `COC(=O)[C@@H]1CCCN1Cc1cn(C/C=C(\C)CC/C=C(/C)CCC=C(C)C)nn1` [Compound 3o, Methyl ((1-((2E,6Z)-3,7,11-Trimethyldodeca-2,6,10-Trien-1-yl)-1H-1,2,3-Triazol-4-yl)Methyl)-L-Prolinate], the IC50 in series [1] (setting [3]) was determined as 0.0586 ± 0.00137 mM; in series [1] (Trypanosoma cruzi, epimastigotes, unit given as mM, read-out: T. cruzi epimastigotes IC50 (as restated in the discussion)), 0.0596 mM.

As for `CCCCCCCC/C=C\CCCCCCCCn1cc(CN2CCC[C@H]2C(=O)OC)nn1` [Compound 3k, Methyl (Z)-((1-(Octadec-9-en-1-yl)-1H-1,2,3-Triazol-4-yl)Methyl)-L-Prolinate], in series [1], the “Times more active than T4C” value was determined as 22. Besides, the IC50 is below 0.04 mM in series [1] (setting [3]); < 0.05 mM and 0.0351 mM in series [1] (setting [4]); 17 µM with Vero cells. The “Selectivity index (IC50 Vero cells / IC50 T. cruzi epimastigotes)” value in the series on Vero cells is 0.43. Moreover, in the series with L-proline transporter (0.31 mM L-proline (Km), 30 s), the “% of Proline inh.” value is on record as 0%. For the same molecule, the “Proline uptake inhibition (in words)” value with L-proline transporter is reported as “no inhibition”.

`COC(=O)[C@@H]1CCCN1Cc1cn(CC=C(C)CCCC(C)CCCC(C)CCCC(C)C)nn1` (stereo partly drawn) [Compound 3q, Methyl ((1-(3,7,11,15-Tetramethylhexadec-2-en-1-yl)-1H-1,2,3-Triazol-4-yl)Methyl)-L-Prolinate]: the IC50 in series [1] (setting [3]) worked out at 0.0483 ± 0.00581 mM.

`COC(=O)[C@@H]1CCCN1Cc1cn(Cc2ccc3ccccc3c2)nn1` [Compound 3g, Methyl ((1-(Naphthalen-2-Ylmethyl)-1H-1,2,3-Triazol-4-yl)Methyl)-L-Prolinate] registered a melting point of 64 to 64.9 °C. Further, the IC50 in series [1] (setting [3]) is 0.1 mM.

Take `COC(=O)[C@@H]1CCCN1Cc1cn(C2CCCCC2)nn1` [Compound 3d, Methyl ((1-Cyclohexyl-1H-1,2,3-Triazol-4-yl)Methyl)-L-Prolinate]: in series [1] (setting [3]), the IC50 was above 0.1 mM. The “Effect on parasite growth” value in series [1] (epimastigotes) was “did not affect the parasite growth; also recorded: inactive”.

As to `COC(=O)[C@@H]1CCCN1Cc1cn(CC=Cc2ccccc2)nn1` [Compound 3f, Methyl ((1-Cinnamyl-1H-1,2,3-Triazol-4-yl)Methyl)-L-Prolinate], the IC50 in series [1] (setting [3]) was above 0.1 mM. In series [1] (epimastigotes), the “Effect on parasite growth” value was “did not affect the parasite growth; also recorded: inactive”.

For `O=C(O)[C@@H]1CSCN1` [Compound T4C, L-thiazolidine-4-carboxylic acid], the IC50 in series [2] (ref Magdaleno et al., 2009, read-out: IC50 on T. cruzi epimastigotes) is 890 µM.
